According to patent US20120142667A1, “PYRIMIDINE DERIVATIVES AS ZAP-70 INHIBITORS” (priority 2009, published 2012):
Where a name gives a salt, the structure may show the parent alone.

Experiments:
ZAP-70 = target: T1, ZAP-70 (Homo sapiens, UniProt P43403); test: ZAP-70 kinobeads assay; assay type: binding; settings: cell lysate
T1 construct: endogenous in cells; host or cells: cell lysate
T1 sequence (P43403 1-619): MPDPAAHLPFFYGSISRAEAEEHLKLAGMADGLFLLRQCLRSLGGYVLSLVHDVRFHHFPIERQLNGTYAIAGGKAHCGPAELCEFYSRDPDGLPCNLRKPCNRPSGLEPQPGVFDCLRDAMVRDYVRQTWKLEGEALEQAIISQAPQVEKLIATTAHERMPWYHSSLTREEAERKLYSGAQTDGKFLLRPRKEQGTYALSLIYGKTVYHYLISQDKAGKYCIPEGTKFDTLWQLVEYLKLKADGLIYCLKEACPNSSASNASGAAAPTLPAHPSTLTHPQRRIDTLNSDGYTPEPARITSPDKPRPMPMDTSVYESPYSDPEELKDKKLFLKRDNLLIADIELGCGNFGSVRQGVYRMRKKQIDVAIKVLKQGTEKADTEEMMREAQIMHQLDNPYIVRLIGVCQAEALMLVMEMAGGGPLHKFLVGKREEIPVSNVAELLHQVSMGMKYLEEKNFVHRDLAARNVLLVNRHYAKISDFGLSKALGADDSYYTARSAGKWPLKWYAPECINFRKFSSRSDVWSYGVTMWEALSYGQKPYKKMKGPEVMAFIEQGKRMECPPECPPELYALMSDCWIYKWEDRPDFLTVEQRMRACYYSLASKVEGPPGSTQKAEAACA
Summary of the method: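 Competition binding: compounds at various concentrations incubated with cell lysate plus affinity matrix bearing immobilized aminopyrido-pyrimidine ligand 24. ZAP-70 retained on beads eluted and quantified by specific-antibody dot blot with infrared detection.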

[1] = tested on: Calcium Ion Release in Cells; test: calcium release assay (measurement of calcium ion release in cells); assay type: cell-based; settings: calcium release assay as described in WO-A 2009/080638

Row | SMILES | IC50 (ZAP-70) | IC50 [1]
1 | COc1ccc(Nc2nc(Nc3ccncc3C)ncc2Cl)c(NS(C)(=O)=O)c1 [Example 70, N-(2-(5-chloro-2-(3-methylpyridin-4-ylamino)pyrimidin-4-ylamino)-5-methoxyphenyl)methanesulfonamide] | ≤ 0.1 µM | ≤ 1 µM
2 | COc1ccc(Nc2nc(Nc3cccc(OCCCO)c3C)ncc2Cl)c(NS(C)(=O)=O)c1 [Example 94, N-(2-((5-chloro-2-((3-(3-hydroxypropoxy)-2-methylphenyl)amino)pyrimidin-4-yl)amino)-5-methoxyphenyl)methanesulfonamide] | 0.1 to 1 µM | ≤ 1 µM
3 | COc1ccc(Nc2nc(Nc3cc(OCCN)ccc3OC)ncc2Cl)c(NS(C)(=O)=O)c1 [Example 67, N-(2-(2-(5-(2-aminoethoxy)-2-methoxyphenylamino)-5-chloropyrimidin-4-ylamino)-5-methoxyphenyl)methanesulfonamide hydrochloride] | 0.1 to 1 µM | ≤ 1 µM
4 | COc1ccc(Nc2nc(Nc3cc(OCCCN4CCCCC4)ccc3OC)ncc2Cl)c(NS(C)(=O)=O)c1 [Example 2, N-(2-(5-chloro-2-(2-methoxy-5-(3-(piperidin-1-yl)propoxy)phenylamino)pyrimidin-4-ylamino)-5-methoxyphenyl)methanesulfonamide] | ≤ 0.1 µM | ≤ 1 µM
5 | COc1ccc(Nc2nc(Nc3cnc(C)cc3C)ncc2Cl)c(NS(C)(=O)=O)c1 [Example 71, N-(2-(5-chloro-2-(4,6-dimethylpyridin-3-ylamino)pyrimidin-4-ylamino)-5-methoxyphenyl)methanesulfonamide] | ≤ 0.1 µM | ≤ 1 µM
6 | COc1ccc(Nc2nc(Nc3ccc(OCCO)cc3OC)ncc2Cl)c(NS(C)(=O)=O)c1 [Example 4, N-(2-(5-chloro-2-(4-(2-hydroxyethoxy)-2-methoxyphenylamino)pyrimidin-4-ylamino)-5-methoxyphenyl)methanesulfonamide] | ≤ 0.1 µM | ≤ 1 µM
7 | COc1ccc(Nc2nc(Nc3cc(OC)c(CC(N)=O)cc3OC)ncc2Cl)c(NS(C)(=O)=O)c1 [Example 107, 2-(4-((5-chloro-4-((4-methoxy-2-(methylsulfonamido)phenyl)amino)pyrimidin-2-yl)amino)-2,5-dimethoxyphenyl)acetamide] | 0.1 to 1 µM | ≤ 1 µM
8 | COc1ccc(Nc2nc(Nc3cc(OCCO)ccc3F)ncc2Cl)c(NS(C)(=O)=O)c1 [Example 64, N-(2-(5-chloro-2-(2-fluoro-5-(2-hydroxyethoxy)phenylamino)pyrimidin-4-ylamino)-5-methoxyphenyl)methanesulfonamide] | 0.1 to 1 µM | ≤ 1 µM

Now from value to molecule:

Row | IC50 (ZAP-70) | IC50 [1] | SMILES
9 | 0.1 to 1 µM | ≤ 1 µM | COc1ccc(Nc2nc(Nc3ccc(OC)c(OC)c3OC)ncc2Cl)c(NS(C)(=O)=O)c1 [Example 32, N-(2-(5-chloro-2-(2,3,4-trimethoxyphenylamino)pyrimidin-4-ylamino)-5-methoxyphenyl)methanesulfonamide hydrochloride]
10 | ≤ 0.1 µM | ≤ 1 µM | COc1ccc(Nc2nc(Nc3cccc(CCCO)c3C)ncc2Cl)c(NS(C)(=O)=O)c1 [Example 97, N-(2-((5-chloro-2-((3-(3-hydroxypropyl)-2-methylphenyl)amino)pyrimidin-4-yl)amino)-5-methoxyphenyl)methanesulfonamide]
11 | 0.1 to 1 µM | ≤ 1 µM | COc1ccc(Nc2nc(Nc3cnc(OC)cc3C)ncc2Cl)c(NS(C)(=O)=O)c1 [Example 74, N-(2-(5-chloro-2-(6-methoxy-4-methylpyridin-3-ylamino)pyrimidin-4-ylamino)-5-methoxyphenyl)methanesulfonamide]
12 | 0.1 to 1 µM | ≤ 1 µM | COc1ccc(Nc2nc(Nc3cc(CCC(N)=O)ccc3OC)ncc2Cl)c(NS(C)(=O)=O)c1 [Example 113, 3-(3-(5-chloro-4-(4-methoxy-2-(methylsulfonamido)phenylamino)pyrimidin-2-ylamino)-4-methoxyphenyl)propanamide]
13 | 0.1 to 1 µM | ≤ 1 µM | COc1ccc(C)c(Nc2ncc(Cl)c(Nc3ccc(OC)cc3NS(C)(=O)=O)n2)c1 [Example 57, N-(2-(5-chloro-2-(5-methoxy-2-methylphenylamino)pyrimidin-4-ylamino)-5-methoxyphenyl)methanesulfonamide hydrochloride]
14 | ≤ 0.1 µM | ≤ 1 µM | COc1ccc(Nc2nc(Nc3cc(OC)c(OC)cc3C)ncc2Cl)c(NS(C)(=O)=O)c1 [Example 37, N-(2-(5-chloro-2-(4,5-dimethoxy-2-methylphenylamino)pyrimidin-4-ylamino)-5-methoxyphenyl)methanesulfonamide]
15 | 0.1 to 1 µM | ≤ 1 µM | COc1ccc(OC)c(Nc2ncc(Cl)c(Nc3ccccc3NS(C)(=O)=O)n2)c1 [Example 16, N-(2-(5-chloro-2-(2,5-dimethoxyphenylamino)pyrimidin-4-ylamino)phenyl)methanesulfonamide hydrochloride]
